No end group written: not given here.
System: TARP antigen-specific T cells
Test: IFN-γ ELISPOT on splenocytes of vaccinated HLA-A2 transgenic (AAD) mice, s.c. day 0 and day 7
Format: in vivo, HLA-A2 expressing transgenic mice (AAD mice)
Settings: for response when used as a stimulatory peptide for the ELISPOT: HLA-A2 transgenic mouse model; for TARP 21-40 ELISPOT responses: FIG. 8; for TARP 29-37 (9V) ELISPOT responses: encapsulated in R-DOTAP nanoparticles, stimulatory peptide TARP 29-37 (9V) in water/sucrose
[1] = FIG. 6, formulated with R-DOTAP nanoparticles, stimulatory peptide SEQ ID NO:3 (9V), antigen dose 100 micrograms
[2] = FIG. 7, formulated with R-DOTAP nanoparticles, stimulatory peptide TARP 21-40 (SEQ ID NO:6), antigen dose 100 micrograms
[3] = formulated with R-DOTAP nanoparticles, two immunizations, stimulatory peptide TARP 21-40 (17V) in water/sucrose
[4] = FIG. 5, formulated in CFA, stimulatory peptide TARP 27-35 (SEQ ID NO:2), antigen dose 100 micrograms

| Substance | antigen-specific ELISPOT responses [1] | antigen-specific ELISPOT responses [2] | TARP 21-40 ELISPOT responses [3] | TARP 29-37 (9V) ELISPOT responses (FIG. 9, two immunizations) | antigen-specific ELISPOT responses [4] | other results |
| --- | --- | --- | --- | --- | --- | --- |
| FLRNFSLMV (not fully specified) [SEQ ID NO:3] | no antigen-specific ELISPOT responses | no or very weak antigen-specific ELISPOT responses | no or very weak TARP 21-40 ELISPOT responses | did not appear to elicit any TARP 29-37 (9V) ELISPOT responses |  | response when used as a stimulatory peptide for the ELISPOT (FIG. 6): apparently inactive; ELISPOT responses to TARP 29-37 (9V) (FIG. 9, Complete Freund's Adjuvant (CFA), stimulatory peptide TARP 29-37 (9V)): Very weak or no ELISPOT responses |
| FVFLRNFSL (not fully specified) [SEQ ID NO:2] |  |  |  |  |  | response when used as a stimulatory peptide for the ELISPOT (FIG. 5): apparently inactive |
| KSS-FLRNFSLMV (not fully specified; palmitoylated; SITE 1 Palmitoyl modified residue) [SEQ ID NO:10, palmitoylated TARP 2 (29-37)] |  |  |  |  | no antigen-specific ELISPOT responses |  |
| KSS-RRLEHTFVFLRNFSLMLLRG (not fully specified; palmitoylated; SITE 1 Palmitoyl modified residue) [SEQ ID NO:13, palmitoylated TARP 6 (21-40)] | no antigen-specific ELISPOT responses | no or very weak antigen-specific ELISPOT responses | no or very weak TARP 21-40 ELISPOT responses |  | no antigen-specific ELISPOT responses | antigen-specific ELISPOT responses (FIG. 6, formulated in CFA, stimulatory peptide SEQ ID NO:3 (9V), antigen dose 100 micrograms): no antigen-specific ELISPOT responses; antigen-specific ELISPOT responses (FIG. 7, formulated in CFA, stimulatory peptide TARP 21-40 (SEQ ID NO:6), antigen dose 100 micrograms): no or very weak antigen-specific ELISPOT responses |
| RRLEHTFVFLRNFSLMLLRG (not fully specified) [SEQ ID NO:6] | no antigen-specific ELISPOT responses | no or very weak antigen-specific ELISPOT responses | no or very weak TARP 21-40 ELISPOT responses | did not appear to elicit any TARP 29-37 (9V) ELISPOT responses | no antigen-specific ELISPOT responses | response when used as a stimulatory peptide for the ELISPOT (FIG. 7): inactive or very weakly active; TARP 21-40 ELISPOT responses (Complete Freunds Adjuvant (CFA), stimulated with TARP 21-40 (SEQ ID NO:6)): very weakly active |
| SSEEEDE-RRLEHTFVFLRNFSLMLLRG (SSEEEDERRLEHTFVFLRNFSLMLLRG; Anionic amino acids) [SEQ ID NO:21] | no antigen-specific ELISPOT responses | no or very weak antigen-specific ELISPOT responses | no or very weak TARP 21-40 ELISPOT responses |  | no antigen-specific ELISPOT responses | mice responding to vaccination (FIG. 7, R-DOTAP nanoparticles, antigen dose 100 micrograms): two of six |
